# Patent publication US11420935B2, “Bicyclic compounds” (Vivace Therapeutics, Inc., priority 2019, dated 2022)
# pIC50: −log10 of the molar value.
# Tested on: 8×TBD luciferase reporter (YAP) in HEK293T cells
# Assay: YAP Reporter Assay (8×TBD firefly luciferase reporter)
# Type: cell-based
# Details: Homo sapiens, HEK-293T, 24 h, read-out: Firefly Luciferase IC50 (μM)
# Procedure: HEK293T cells stably transfected with 8×TBD luciferase reporter and pRLTK in 384-well plates were treated with the test compounds, starting from 3 μM (final concentration in assay plate), 1:3 dilution, and 10 points in quadruplicates. Post 24-hr incubation with compounds at 37° C. and 5% CO2, cells were lysed and 8×TBD-driven firefly luciferase and control TK-driven renilla luciferase activities were measured using Promega Dual-Luciferase Reporter Assay System.
# Reagents: The reagents used for this study are: DMEM: Invitrogen #11960077, Dual-Glo Luciferase Assay System: Promega-E2980, Puromycin Dihydrochloride: Invitrogen-A1113803, 384-well plate: PerkinElmer-6007480, L-GLUTAMINE: Invitrogen-25030164, Hygromycin B: Invitrogen-10687010, and Penicillin-Streptomycin: Merk-TMS-AB2-C
# Media: The media used for this assay were: Culture Medium: DMEM+1 ug/mL puromycin+200 ug/mL hygromycin (with 10% FBS+1 mM L-glutamine); and Assay Medium: DMEM (with 10% FBS+1 mM L-glutamine+1×P/S).
# Cell Plating: The appropriate media was warmed at 37° C. by water bath: Culture Medium, Assay Medium, 1*D-PBS, 0.05% trypsin-EDTA. The cells were trypsinized after removing all media, then washed with 1*sterile D-PBS and then with 2 ml 0.05% trypsin-EDTA. The cells were then incubated at RT for one minute. Then 10 ml/75 cm2 flask Assay Medium was added to each flask. Using a 10 ml pipette, the cells were then gently resuspended in the media, until the clumps completely disappeared. The cells were then transferred into 50 ml centrifuge tubes and were centrifuged at 800 rpm for 5 mins. The medium was removed and the cells were resuspended with Assay Medium. An aliquot of cells was used to count the cell density (cells/ml). The cell suspension was then diluted with Assay Medium to a concentration of 6×10^4 cells/ml. 50 ul cells suspension was then plated to 384-well plate (PerkinElmer-6007480), 3×10^3 cells/well and the cells were incubated in an incubator at 37° C., 5% CO2.
# Compound Treatment: In the afternoon (incubation of the plate with 3-4 hrs), the test compounds were added by Echo, starting from 3 uM (final concentration in the assay plate), 1:3 dilution, 10 points, quadruplicates. The plate was placed at 37° C., 5% CO2 incubator for 24 hrs.
# Detection: The Dual-Glo Luciferase Reagent was prepared by transferring the contents of one bottle of Dual-Glo Luciferase Buffer to one bottle of Dual-Glo Luciferase Substrate to create the Dual-Glo Luciferase Reagent. Mixing was performed by inversion until the substrate was thoroughly dissolved. After mixing, the reagent was aliquoted into 15 ml tubes. In the afternoon (24 hrs post compound treatment), the DMEM+medium in the 384 well plates were aspirated by Microplate Washer.
# Measuring firefly luciferase activity: 20 ul Dual-Glo Luciferase Reagent was added to the 384-well plates. The plates were protected from light to prevent interference with the assay. The plates were shaken for 1 min followed centrifuging plates at 1000 rpm for 30 seconds. After waiting at least 10 minutes, the firefly luminescence was measured by Envision.
# Measuring renilla luciferase activity: 20 ul Stop-Glo Reagent was added to the 384-well plates. The plates were shaken for 1 min and then centrifuged at 1000 rpm for 30 seconds. After waiting at least 10 minutes, the renilla luminescence was measured by Envision.
# Compound IC50 and maximum inhibition on the firefly luciferase and renilla luciferase activities were reported separately.
row,SMILES,IC50
1,"CC(C)NC(=O)c1ccc2c(Oc3ccc(Cl)cc3)cccc2c1 [Compound 1, 5-(4-chlorophenoxy)-N-isopropyl-2-naphthamide]",< 0.1 µM
2,"CC(C)NC(=O)c1ccc2c(Oc3cccc(Cl)c3)cccc2c1 [Compound 2, 5-(3-chlorophenoxy)-N-isopropyl-2-naphthamide]",< 0.1 µM
3,"CC(C)NC(=O)c1ccc2c(Oc3ccc(Cl)c(Cl)c3)cccc2c1 [Compound 3, 5-(3,4-dichlorophenoxy)-N-isopropyl-naphthalene-2-carboxamide]",< 0.1 µM
4,"CC(C)NC(=O)c1cnc2c(Oc3ccc(C(F)(F)F)cc3)cccc2c1 [Compound 13, N-isopropyl-8-[4-(trifluoromethyl)phenoxy]quinoline-3-carboxamide]",< 0.1 µM
5,"N#CCNC(=O)c1ccc2c(Oc3ccc(C(F)(F)F)cc3)cccc2c1 [Compound 22, N-(cyanomethyl)-5-(4-(trifluoromethyl)phenoxy)-2-naphthamid]",< 0.1 µM
6,"N#CCCNC(=O)c1ccc2c(Oc3ccc(C(F)(F)F)cc3)cccc2c1 [Compound 23, N-(2-cyanoethyl)-5-(4-(trifluoromethyl)phenoxy)-2-naphthamide]",< 0.1 µM

# Same assay, conditions: Homo sapiens, HEK-293T; HEK293T cells stably transfected with 8×TBD luciferase reporter and pRLTK; 24-hr incubation; firefly luciferase activity; read-out: Firefly Luciferase IC50
row,SMILES,pIC50
1,"CC(C)NC(=O)c1ccc2c(Oc3ccc(C(F)(F)F)cc3)cccc2c1 [Compound 4, N-isopropyl-5-(4-(trifluoromethyl)phenoxy)-2-naphthamide]",> 7.00
2,"CS(=O)(=O)NC(=O)c1ccc2c(Oc3ccc(C(F)(F)F)cc3)cccc2c1 [Compound 5, N-(methylsulfonyl)-5-(4-(trifluoromethyl)phenoxy)-2-naphthamide]",> 7.00
3,"CS(=O)(=O)NC(=O)c1ccc2c(Oc3ccc(Cl)c(Cl)c3)cccc2c1 [Compound 6, 5-(3,4-dichlorophenoxy)-N-(methylsulfonyl)-2-naphthamide]",> 7.00
4,"CNS(=O)(=O)c1ccc2c(Oc3ccc(C(F)(F)F)cc3)cccc2c1 [Compound 7, N-methyl-5-(4-(trifluoromethyl)phenoxy)naphthalene-2-sulfonamide]",> 7.00
5,"CC(C)NC(=O)c1ccc2c(Oc3ccc(F)c(F)c3)cccc2c1 [Compound 8, 5-(3,4-difluorophenoxy)-N-isopropyl-2-naphthamide]",> 7.00
6,"CNS(=O)(=O)c1ccc2c(Oc3ccc(Cl)c(Cl)c3)cccc2c1 [Compound 9, 5-(3,4-dichlorophenoxy)-N-methylnaphthalene-2-sulfonamide]",> 7.00
7,"CS(=O)(=O)NC(=O)c1ccc2c(Oc3ccc(F)c(F)c3)cccc2c1 [Compound 10, 5-(3,4-difluorophenoxy)-N-(methylsulfonyl)-2-naphthamide]",> 7.00
8,"CC(C)NC(=O)c1ccc2c(Oc3ccc(C(F)(F)F)cc3)nccc2c1 [Compound 11, N-isopropyl-1-[4-(trifluoromethyl)phenoxy]isoquinoline-6-carboxamide]",> 7.00
9,"C[C@H](CO)NC(=O)c1ccc2c(Oc3ccc(C(F)(F)F)cc3)nccc2c1 [Compound 12, N-[(1R)-2-hydroxy-1-methyl-ethyl]-1-[4-(trifluoromethyl)phenoxy]isoquinoline-6-carboxamide]",> 7.00
10,"O=C(NC(CO)c1ccccn1)c1cnc2c(Oc3ccc(C(F)(F)F)cc3)cccc2c1 (stereo not shown) [Compound 14, N-[2-hydroxy-1-(2-pyridyl)ethyl]-8-[4-(trifluoromethyl)phenoxy]quinoline-3-carboxamide]",> 7.00
11,"C[C@H](CO)NC(=O)c1cnc2c(Oc3ccc(C(F)(F)F)cc3)cccc2c1 [Compound 15, N-[(1R)-2-hydroxy-1-methyl-ethyl]-8-[4-(trifluoromethyl)phenoxy]quinoline-3-carboxamide]",> 7.00
12,"COC[C@@H](C)NC(=O)c1cnc2c(Oc3ccc(C(F)(F)F)cc3)cccc2c1 [Compound 16, N-[(1R)-2-methoxy-1-methyl-ethyl]-8-[4-(trifluoromethyl)phenoxy]quinoline-3-carboxamide]",6.00 to 7.00
13,"C[C@@H](NC(=O)c1cnc2c(Oc3ccc(C(F)(F)F)cc3)cccc2c1)c1ccccn1 [Compound 17, N-[(1R)-1-(2-pyridyl)ethyl]-8-[4-(trifluoromethyl)phenoxy]quinoline-3-carboxamide]",6.00 to 7.00
14,"COC[C@H](C)NC(=O)c1cnc2c(Oc3ccc(C(F)(F)F)cc3)cccc2c1 [Compound 18, N-[(1S)-2-methoxy-1-methyl-ethyl]-8-[4-(trifluoromethyl)phenoxy]quinoline-3-carboxamide]",> 7.00
15,"C[C@H](NC(=O)c1cnc2c(Oc3ccc(C(F)(F)F)cc3)cccc2c1)c1ccccn1 [Compound 19, N-[(1S)-1-(2-pyridyl)ethyl]-8-[4-(trifluoromethyl)phenoxy]quinoline-3-carboxamide]",> 7.00
16,"C#CCNC(=O)c1ccc2c(Oc3ccc(C(F)(F)F)cc3)cccc2c1 [Compound 20, N-(prop-2-yn-1-yl)-5-(4-(trifluoromethyl)phenoxy)-2-naphthamide]",> 7.00
17,"C#CCCNC(=O)c1ccc2c(Oc3ccc(C(F)(F)F)cc3)cccc2c1 [Compound 21, N-(but-3-yn-1-yl)-5-(4-(trifluoromethyl)phenoxy)-2-naphthamide]",> 7.00
18,"C[C@H](CO)NC(=O)c1ccc2c(Oc3ccc(C(F)(F)F)cc3)cccc2c1 [Compound 24, (R)—N-(1-hydroxypropan-2-yl)-5-(4-(trifluoromethyl)phenoxy)-2-naphthamide]",> 7.00
19,"O=C(NC(CO)c1ccccn1)c1ccc2c(Oc3ccc(C(F)(F)F)cc3)cccc2c1 (stereo not shown) [Compound 25, N-(2-hydroxy-1-(pyridin-2-yl)ethyl)-5-(4-(trifluoromethyl)phenoxy)-2-naphthamide]",> 7.00
20,"COC[C@@H](C)NC(=O)c1ccc2c(Oc3ccc(C(F)(F)F)cc3)cccc2c1 [Compound 26, (R)—N-(1-methoxypropan-2-yl)-5-(4-(trifluoromethyl)phenoxy)-2-naphthamide]",> 7.00
21,"C[C@@H](NC(=O)c1ccc2c(Oc3ccc(C(F)(F)F)cc3)cccc2c1)c1ccccn1 [Compound 27, N-[(1R)-1-(2-pyridyl)ethyl]-5-[4-(trifluoromethyl)phenoxy]naphthalene-2-carboxamide]",6.00 to 7.00
22,"COC[C@H](C)NC(=O)c1ccc2c(Oc3ccc(C(F)(F)F)cc3)cccc2c1 [Compound 28, (S)—N-(1-methoxypropan-2-yl)-5-(4-(trifluoromethyl)phenoxy)-2-naphthamide]",> 7.00
23,"C[C@H](NC(=O)c1ccc2c(Oc3ccc(C(F)(F)F)cc3)cccc2c1)c1ccccn1 [Compound 29, (S)—N-(1-(pyridin-2-yl)ethyl)-5-(4-(trifluoromethyl)phenoxy)-2-naphthamide]",> 7.00
24,"CNCCNC(=O)c1ccc2c(Oc3ccc(C(F)(F)F)cc3)cccc2c1 [Compound 30, N-(2-(methylamino)ethyl)-5-(4-(trifluoromethyl)phenoxy)-2-naphthamide]",6.00 to 7.00
25,"CN(C#N)CCNC(=O)c1ccc2c(Oc3ccc(C(F)(F)F)cc3)cccc2c1 [Compound 31, N-(2-(N-methylcyanamido)ethyl)-5-(4-(trifluoromethyl)phenoxy)-2-naphthamide]",> 7.00
26,"CC(C)NC(=O)c1cc2cccc(Oc3ccc(C(F)(F)F)cc3)c2s1 [Compound 32, N-isopropyl-7-(4-(trifluoromethyl)phenoxy)benzo[b]thiophene-2-carboxamide]",> 7.00
27,"C[C@H](CO)NC(=O)c1cc2cccc(Oc3ccc(C(F)(F)F)cc3)c2s1 [Compound 33, (R)—N-(1-hydroxypropan-2-yl)-7-(4-(trifluoromethyl)phenoxy)benzo[b]thiophene-2-carboxamide]",> 7.00
28,"CNCCCNC(=O)c1ccc2c(Oc3ccc(C(F)(F)F)cc3)cccc2c1 [Compound 34, N-(3-(methylamino)propyl)-5-(4-(trifluoromethyl)phenoxy)-2-naphthamide]",> 7.00
